In patent US7166303B2, “Anesthetic formulations” (Maelor Pharmaceuticals Limited, priority 2000, dated 2007):
In brackets after ≈: the same amount, converted by molar mass.

Experiments:
[1] = 84% water/16% propylene glycol, ambient temperature
physchem = details: water, thermodynamic from solid
Procedure: Analyses were performed using the Perkin Elmer Lambda 5 UV/Vis Spectrophotometer.
Two sets of standards were prepared by serial dilution of: • 1. 10% poloxamer P407/1% Propofol solution in water. • 2. 1% Propofol solution in ethanol (EtOH).
Dilutions were performed with water and EtOH respectively. The standards were further diluted one hundred fold prior to measurement of their UV absorption spectra recorded.

SMILES: CC(C)c1cccc(C(C)C)c1O [Propofol, 2,6-bis(1-methylethyl)phenol]
- increase of solubility of Propofol over water alone [1]: approximately 50%
- solubility thermodynamic (physchem): ~1000 µM (≈ 178 µg/mL)
